Here are results for one compound from PMC3867539 (Angewandte Chemie (International ed. in English), 2013).

The target in one assay is CYP71A13 (Arabidopsis thaliana, UniProt O49342). The settings on record: estimate only, not a measured constant; Cys as thiol donor.
Another assay concerns the target CYP71A12 (Arabidopsis thaliana, UniProt O49340). The settings on record: estimate only, not a measured constant; Cys as thiol donor.

CYP71A12, sequence (O49340 whole entry): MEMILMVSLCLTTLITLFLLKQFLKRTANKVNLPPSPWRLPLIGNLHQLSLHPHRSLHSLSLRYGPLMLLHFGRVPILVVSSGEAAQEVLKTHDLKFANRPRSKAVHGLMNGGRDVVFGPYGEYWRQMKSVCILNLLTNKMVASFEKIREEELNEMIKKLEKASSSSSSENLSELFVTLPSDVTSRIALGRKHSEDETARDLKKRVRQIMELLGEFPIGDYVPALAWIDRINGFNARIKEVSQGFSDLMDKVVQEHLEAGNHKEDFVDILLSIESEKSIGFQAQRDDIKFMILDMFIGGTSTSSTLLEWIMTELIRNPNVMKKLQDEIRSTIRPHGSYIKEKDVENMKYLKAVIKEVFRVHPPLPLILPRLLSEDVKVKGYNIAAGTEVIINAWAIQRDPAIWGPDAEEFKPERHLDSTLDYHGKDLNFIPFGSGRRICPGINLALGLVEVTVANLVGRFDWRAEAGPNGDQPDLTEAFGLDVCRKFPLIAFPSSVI
CYP71A13, sequence (O49342 whole entry): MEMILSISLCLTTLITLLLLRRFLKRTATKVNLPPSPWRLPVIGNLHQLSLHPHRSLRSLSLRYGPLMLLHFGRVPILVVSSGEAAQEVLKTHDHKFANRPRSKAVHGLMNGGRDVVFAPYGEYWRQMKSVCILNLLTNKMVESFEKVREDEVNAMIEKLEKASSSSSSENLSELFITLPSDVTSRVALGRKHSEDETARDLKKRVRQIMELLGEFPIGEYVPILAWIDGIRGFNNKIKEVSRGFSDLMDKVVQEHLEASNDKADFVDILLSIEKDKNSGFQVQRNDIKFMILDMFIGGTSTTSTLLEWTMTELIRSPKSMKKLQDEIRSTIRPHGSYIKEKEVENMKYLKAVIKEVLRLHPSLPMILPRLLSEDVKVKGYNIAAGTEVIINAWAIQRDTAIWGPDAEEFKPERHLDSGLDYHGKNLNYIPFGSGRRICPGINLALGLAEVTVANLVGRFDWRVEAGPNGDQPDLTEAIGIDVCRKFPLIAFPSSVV

As to `N#CCc1c[nH]c2ccccc12` [IAN], the Km at CYP71A13 and on CYP71A12 was over 100 µM throughout.
